Data as given in patent US20220274954A1, “SUBSTITUTED N-PHENYL-N-AMINOUARCILS AND SALTS THEREOF AND USE THEREOF AS HERBICIDAL AGENTS” (Bayer Aktiengesellschaft, priority 2019, published 2022).

Legend:
Format in all cases: in vivo
Zea mays = test: Post-emergence crop plant compatibility
Method: (§1) Seeds of monocotyledonous and dicotyledonous weeds and crop plants were placed in sandy loam in plastic or wood-fiber pots, covered with soil and cultivated in a greenhouse under controlled growth conditions. 2 to 3 weeks after sowing, the test plants were treated at the one-leaf stage. The compounds of the invention, formulated in the form of wettable powders (WP) or as emulsion concentrates (EC), were then sprayed onto the green parts of the plants as aqueous suspension or emulsion with addition of 0.5% additive at a water application rate of […] (converted). After the test plants had been kept in the greenhouse under optimum growth conditions for about 3 weeks, the activity of the preparations was rated visually in comparison to untreated controls. For example, 100% activity=the plants have died, 0% activity=like control plants.
(§2) Here, the observed effects on selected crop plants are stated in comparison to the untreated controls (values in %).

Glycine max = test: Post-emergence crop plant compatibility
Method: as §1, §2

Triticum aestivum = test: Post-emergence crop plant compatibility; settings: application rate 5 g/ha
Method: as §1, §2

Oryza sativa = test: Post-emergence crop plant compatibility
Method: as §1, §2

Abutilon theophrasti = test: Post-emergence herbicidal action; settings: Abutilon theophrasti, 504 h, read-out: Abutilon theophrasti (efficacy in %); for pest or weed control at 5 g/ha: application rate 5 g/ha; for pest or weed control at 20 g/ha: application rate 20 g/ha
Method: as §1, with “plants. Tables A1 to A14 below show the effects of selected compounds of the general formula (I) according to Tables I.1 to I.34 on various harmful plants and at an application rate corresponding to 20 g/ha and less, which were obtained by the experimental procedure mentioned above.” for “plants.”

Polygonum convolvulus = test: Post-emergence herbicidal action; settings: Fallopia convolvulus, 504 h, read-out: Polygonum convolvulus (efficacy in %); for pest or weed control at 5 g/ha: application rate 5 g/ha; for pest or weed control at 20 g/ha: application rate 20 g/ha
Method: as §1, with “plants. Tables A1 to A14 below show the effects of selected compounds of the general formula (I) according to Tables I.1 to I.34 on various harmful plants and at an application rate corresponding to 20 g/ha and less, which were obtained by the experimental procedure mentioned above.” for “plants.”

Digitaria sanguinalis = test: Post-emergence herbicidal action; settings: 504 h, read-out: Digitaria sanguinalis (efficacy in %); for pest or weed control at 20 g/ha: application rate 20 g/ha
Method: as §1, with “plants. Tables A1 to A14 below show the effects of selected compounds of the general formula (I) according to Tables I.1 to I.34 on various harmful plants and at an application rate corresponding to 20 g/ha and less, which were obtained by the experimental procedure mentioned above.” for “plants.”

Echinochloa crus-galli = test: Post-emergence herbicidal action; settings: Echinochloa crus-galli, 504 h, read-out: Echinochloa crus-galli (efficacy in %); for pest or weed control at 20 g/ha: application rate 20 g/ha
Method: as §1, with “plants. Tables A1 to A14 below show the effects of selected compounds of the general formula (I) according to Tables I.1 to I.34 on various harmful plants and at an application rate corresponding to 20 g/ha and less, which were obtained by the experimental procedure mentioned above.” for “plants.”

Stellaria media = test: Post-emergence herbicidal action
Method: as §1, with “plants. Tables A1 to A14 below show the effects of selected compounds of the general formula (I) according to Tables I.1 to I.34 on various harmful plants and at an application rate corresponding to 20 g/ha and less, which were obtained by the experimental procedure mentioned above.” for “plants.”

Matricaria inodora = test: Post-emergence herbicidal action; settings: Tripleurospermum inodorum, 504 h, application rate 20 g/ha, read-out: Matricaria inodora (efficacy in %)
Method: as §1, with “plants. Tables A1 to A14 below show the effects of selected compounds of the general formula (I) according to Tables I.1 to I.34 on various harmful plants and at an application rate corresponding to 20 g/ha and less, which were obtained by the experimental procedure mentioned above.” for “plants.”

Setaria viridis = test: Post-emergence herbicidal action; settings: 504 h, read-out: Setaria viridis (efficacy in %); for pest or weed control at 5 g/ha: application rate 5 g/ha; for pest or weed control at 20 g/ha: application rate 20 g/ha
Method: as §1, with “plants. Tables A1 to A14 below show the effects of selected compounds of the general formula (I) according to Tables I.1 to I.34 on various harmful plants and at an application rate corresponding to 20 g/ha and less, which were obtained by the experimental procedure mentioned above.” for “plants.”

Viola tricolor = test: Post-emergence herbicidal action; settings: Viola tricolor, 504 h, read-out: Viola tricolor (efficacy in %); for pest or weed control at 5 g/ha: application rate 5 g/ha; for pest or weed control at 20 g/ha: application rate 20 g/ha
Method: as §1, with “plants. Tables A1 to A14 below show the effects of selected compounds of the general formula (I) according to Tables I.1 to I.34 on various harmful plants and at an application rate corresponding to 20 g/ha and less, which were obtained by the experimental procedure mentioned above.” for “plants.”

Amaranthus retroflexus = test: Post-emergence herbicidal action; settings: Amaranthus retroflexus, 504 h, read-out: Amaranthus retroflexus (efficacy in %); for pest or weed control at 5 g/ha: application rate 5 g/ha; for pest or weed control at 20 g/ha: application rate 20 g/ha
Method: as §1, with “plants. Tables A1 to A14 below show the effects of selected compounds of the general formula (I) according to Tables I.1 to I.34 on various harmful plants and at an application rate corresponding to 20 g/ha and less, which were obtained by the experimental procedure mentioned above.” for “plants.”

Veronica persica = test: Post-emergence herbicidal action; settings: Veronica persica, 504 h, read-out: Veronica persica (efficacy in %); for pest or weed control at 5 g/ha: application rate 5 g/ha; for pest or weed control at 20 g/ha: application rate 20 g/ha
Method: as §1, with “plants. Tables A1 to A14 below show the effects of selected compounds of the general formula (I) according to Tables I.1 to I.34 on various harmful plants and at an application rate corresponding to 20 g/ha and less, which were obtained by the experimental procedure mentioned above.” for “plants.”

Brassica napus = test: Post-emergence crop plant compatibility
Method: as §1, §2

Pharbitis purpurea = test: Post-emergence herbicidal action; settings: Ipomoea purpurea, 504 h, read-out: Pharbitis purpurea (efficacy in %); for pest or weed control at 5 g/ha: application rate 5 g/ha; for pest or weed control at 20 g/ha: application rate 20 g/ha
Method: as §1, with “plants. Tables A1 to A14 below show the effects of selected compounds of the general formula (I) according to Tables I.1 to I.34 on various harmful plants and at an application rate corresponding to 20 g/ha and less, which were obtained by the experimental procedure mentioned above.” for “plants.”

Alopecurus myosuroides = test: Post-emergence herbicidal action; settings: application rate 20 g/ha
Method: as §1, with “plants. Tables A1 to A14 below show the effects of selected compounds of the general formula (I) according to Tables I.1 to I.34 on various harmful plants and at an application rate corresponding to 20 g/ha and less, which were obtained by the experimental procedure mentioned above.” for “plants.”

Zea mays (efficacy in %) (Zea mays; application rate 1.25 g/ha) [%]	Zea mays (efficacy in %) (Zea mays; application rate 5 g/ha) [%]	Glycine max (efficacy in %) (Glycine max; application rate 1.25 g/ha) [%]	Triticum aestivum (efficacy in %) (Triticum aestivum) [%]	Oryza sativa (efficacy in %) (Oryza sativa; application rate 5 g/ha) [%]	Structure (SMILES)	pest or weed control at 5 g/ha (Abutilon theophrasti) [%]	pest or weed control at 20 g/ha (Abutilon theophrasti) [%]	pest or weed control at 5 g/ha (Polygonum convolvulus) [%]	pest or weed control at 20 g/ha (Polygonum convolvulus) [%]	pest or weed control at 20 g/ha (Digitaria sanguinalis) [%]	pest or weed control at 20 g/ha (Echinochloa crus-galli) [%]	Stellaria media (efficacy in %) (Stellaria media; application rate 5 g/ha) [%]	Stellaria media (efficacy in %) (Stellaria media; application rate 20 g/ha) [%]	pest or weed control at 20 g/ha (Matricaria inodora) [%]	pest or weed control at 5 g/ha (Setaria viridis) [%]	pest or weed control at 20 g/ha (Setaria viridis) [%]	pest or weed control at 5 g/ha (Viola tricolor) [%]	pest or weed control at 5 g/ha (Amaranthus retroflexus) [%]	pest or weed control at 5 g/ha (Veronica persica) [%]	pest or weed control at 20 g/ha (Veronica persica) [%]	other results
10	20	10	20	0	CCOC(=O)C(C)Oc1ncccc1Sc1cc(-n2c(=O)cc(C(F)(F)F)n(N)c2=O)c(F)cc1Cl (centres unmarked) [I.2-442, Ethyl 2-{[3-({5-[3-amino-2,6-dioxo-4-(trifluoromethyl)-3,6-dihydropyrimidin-1(2H)-yl]-2-chloro-4-fluorophenyl}sulfanyl)pyridin-2-yl]oxy}propanoate]	100	100	100	100	100	100	80	100	90	100	100	100	100	100	100	pest or weed control at 20 g/ha (Viola tricolor): 100%; pest or weed control at 20 g/ha (Amaranthus retroflexus): 100%
–	20	0	20	10	Nn1c(C(F)(F)F)cc(=O)n(-c2cc(Sc3cccnc3OCCC(=O)OCc3ccccc3)c(Cl)cc2F)c1=O [I.5-457, Benzyl 3-{[3-({5-[3-amino-2,6-dioxo-4-(trifluoromethyl)-3,6-dihydropyrimidin-1(2H)-yl]-2-chloro-4-fluorophenyl}sulfanyl)pyridin-2-yl]oxy}propanoate]	–	80	90	100	–	80	80	100	–	100	100	100	100	100	100	Glycine max (efficacy in %) (Glycine max; application rate 5 g/ha): 10%; Oryza sativa (efficacy in %) (Oryza sativa; application rate 1.25 g/ha): 0%; Brassica napus (efficacy in %) (Brassica napus; application rate 1.25 g/ha): 0%; Brassica napus (efficacy in %) (Brassica napus; application rate 5 g/ha): 10%; pest or weed control at 5 g/ha (Pharbitis purpurea): 90%; pest or weed control at 20 g/ha (Pharbitis purpurea): 90%
10	20	–	20	20	COC(=O)CCCOc1ncccc1Sc1cc(-n2c(=O)cc(C(F)(F)F)n(N)c2=O)c(F)cc1Cl [I.6-441, Methyl 4-{[3-({5-[3-amino-2,6-dioxo-4-(trifluoromethyl)-3,6-dihydropyrimidin-1(2H)-yl]-2-chloro-4-fluorophenyl}sulfanyl)pyridin-2-yl]oxy}butanoate]	100	100	100	100	100	90	100	100	80	90	100	100	100	100	100	Brassica napus (efficacy in %) (Brassica napus; application rate 1.25 g/ha): 20%; pest or weed control at 5 g/ha (Digitaria sanguinalis; application rate 5 g/ha): 80%; pest or weed control at 5 g/ha (Echinochloa crus-galli; application rate 5 g/ha): 80%; Alopecurus myosuroides (efficacy in %) (Alopecurus myosuroides): 80%; pest or weed control at 5 g/ha (Pharbitis purpurea): 80%; pest or weed control at 20 g/ha (Pharbitis purpurea): 90%; pest or weed control at 20 g/ha (Viola tricolor): 100%; pest or weed control at 20 g/ha (Amaranthus retroflexus): 100%
